Source: ChEMBL document CHEMBL1138214 (J Med Chem, 2006)
The source made the active and inactive calls. The calls are words filed in the database; no cut-off is given here.

How the values were obtained:
[1] = AUC (0-6h) in rat at 10 mg/kg, po; assay type: ADME, organism-based; set-up: time < 6 hr, dose 10 mg/kg, route oral; conditions: plasma
[2] = target: T1, C-X-C chemokine receptor type 1 (Homo sapiens, UniProt P25024); assay: Displacement of [125I]hCXCL8 from human CXCR1 receptor expressed in BaF3 cells; assay type: cell-based
T1 sequence (P25024 whole entry): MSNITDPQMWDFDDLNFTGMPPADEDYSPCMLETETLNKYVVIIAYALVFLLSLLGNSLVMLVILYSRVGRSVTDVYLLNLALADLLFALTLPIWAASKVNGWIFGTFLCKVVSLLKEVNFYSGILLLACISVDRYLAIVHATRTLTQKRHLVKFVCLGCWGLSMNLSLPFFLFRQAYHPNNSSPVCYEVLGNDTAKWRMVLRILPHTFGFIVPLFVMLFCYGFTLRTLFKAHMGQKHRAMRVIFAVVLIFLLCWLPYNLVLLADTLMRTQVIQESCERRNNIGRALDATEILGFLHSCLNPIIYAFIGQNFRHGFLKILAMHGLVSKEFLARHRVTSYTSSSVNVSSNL

[3] = target: T2, C-X-C chemokine receptor type 2 (Homo sapiens, UniProt P25025); assay: Displacement of [125I]hCXCL8 from human CXCR2 receptor expressed in BaF3 cells; assay type: cell-based
T2 sequence (P25025 whole entry): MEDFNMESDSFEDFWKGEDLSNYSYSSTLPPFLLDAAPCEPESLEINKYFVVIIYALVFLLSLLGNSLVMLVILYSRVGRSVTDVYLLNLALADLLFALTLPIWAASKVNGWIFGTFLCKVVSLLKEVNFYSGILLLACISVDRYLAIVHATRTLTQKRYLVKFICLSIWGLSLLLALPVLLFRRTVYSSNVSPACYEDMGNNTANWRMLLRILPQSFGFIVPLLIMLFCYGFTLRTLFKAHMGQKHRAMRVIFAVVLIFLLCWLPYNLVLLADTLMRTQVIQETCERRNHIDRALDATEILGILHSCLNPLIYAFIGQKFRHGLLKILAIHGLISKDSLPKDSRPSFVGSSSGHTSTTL

[4] = target: T3, Interleukin-8 receptors, CXCR1/CXCR2 (Homo sapiens, UniProt P25025+P25024); assay: Inhibition of CXCL8-induced human neutrophil chemotaxis; assay type: functional
T3 sequence (P25025 whole entry): T2 sequence (P25025 whole entry)
T3 sequence (P25024 whole entry): T1 sequence (P25024 whole entry)

[5] = target: Interleukin-8 receptors, CXCR1/CXCR2 (Homo sapiens) (UniProt P25025+P25024); assay: Selectivity for CXCR2 over CXCR1; assay type: protein assay
[6] = target: T4, C-X-C chemokine receptor type 1 (Homo sapiens) (UniProt P25024); assay: Displacement of [125I]hCXCL8 from human CXCR1 receptor expressed in BaF3 cells at >10000 nM; assay type: cell-based
T4 sequence (whole entry): T1 sequence (P25024 whole entry)

[7] = target: T5, fMet-Leu-Phe receptor (Homo sapiens) (UniProt P21462); assay: Inhibition of fMLP-induced human neutrophil chemotaxis; assay type: functional
T5 sequence (whole entry): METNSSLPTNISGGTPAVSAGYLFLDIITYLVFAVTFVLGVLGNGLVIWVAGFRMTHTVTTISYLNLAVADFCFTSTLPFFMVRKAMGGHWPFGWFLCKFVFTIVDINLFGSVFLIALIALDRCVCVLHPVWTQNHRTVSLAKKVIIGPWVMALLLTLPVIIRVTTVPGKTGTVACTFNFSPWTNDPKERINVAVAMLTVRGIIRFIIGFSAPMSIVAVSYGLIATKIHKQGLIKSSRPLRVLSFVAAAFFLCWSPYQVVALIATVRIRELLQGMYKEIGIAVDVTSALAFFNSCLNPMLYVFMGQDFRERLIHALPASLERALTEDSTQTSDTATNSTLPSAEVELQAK

[8] = target: C-C chemokine receptor type 5 (Homo sapiens) (UniProt P51681); assay: Inhibition of CCR5 receptor at 2 to 20 uM
Chain of C-C chemokine receptor type 5 (Homo sapiens) (P51681 whole entry, looked up): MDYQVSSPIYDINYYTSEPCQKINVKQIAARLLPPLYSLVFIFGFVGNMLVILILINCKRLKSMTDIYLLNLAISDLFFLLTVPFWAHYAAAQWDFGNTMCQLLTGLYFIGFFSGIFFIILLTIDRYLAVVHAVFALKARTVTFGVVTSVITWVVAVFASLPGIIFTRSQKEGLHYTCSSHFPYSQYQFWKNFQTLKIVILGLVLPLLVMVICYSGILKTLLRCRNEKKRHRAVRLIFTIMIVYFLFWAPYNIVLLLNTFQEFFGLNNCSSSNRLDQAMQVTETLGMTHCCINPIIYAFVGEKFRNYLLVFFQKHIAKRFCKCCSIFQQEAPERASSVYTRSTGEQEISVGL

[9] = target: T6, C-X-C chemokine receptor type 3 (Homo sapiens) (UniProt P49682); assay: Inhibition of CXCR3 receptor at 2 to 20 uM
T6 sequence (whole entry): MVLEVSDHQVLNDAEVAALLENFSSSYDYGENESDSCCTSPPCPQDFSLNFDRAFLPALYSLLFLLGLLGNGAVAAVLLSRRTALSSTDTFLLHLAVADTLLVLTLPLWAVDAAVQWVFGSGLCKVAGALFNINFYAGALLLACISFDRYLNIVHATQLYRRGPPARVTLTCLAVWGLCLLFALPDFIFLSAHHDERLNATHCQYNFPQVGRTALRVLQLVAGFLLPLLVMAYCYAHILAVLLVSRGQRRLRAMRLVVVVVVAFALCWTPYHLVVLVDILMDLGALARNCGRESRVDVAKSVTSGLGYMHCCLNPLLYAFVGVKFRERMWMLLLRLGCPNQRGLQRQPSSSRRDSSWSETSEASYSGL

[10] = target: T7, C5a anaphylatoxin chemotactic receptor 1 (Homo sapiens) (UniProt P21730); assay: Inhibition of C5a-induced human neutrophil chemotaxis; assay type: functional
T7 sequence (whole entry): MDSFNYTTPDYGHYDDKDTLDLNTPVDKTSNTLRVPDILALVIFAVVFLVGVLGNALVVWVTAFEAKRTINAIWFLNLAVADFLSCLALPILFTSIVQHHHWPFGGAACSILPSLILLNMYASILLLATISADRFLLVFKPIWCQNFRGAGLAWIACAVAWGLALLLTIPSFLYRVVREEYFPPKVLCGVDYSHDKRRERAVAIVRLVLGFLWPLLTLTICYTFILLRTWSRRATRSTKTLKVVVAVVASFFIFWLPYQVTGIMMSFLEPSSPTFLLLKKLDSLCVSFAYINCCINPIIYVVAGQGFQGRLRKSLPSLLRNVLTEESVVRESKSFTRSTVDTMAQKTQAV

| Structure (SMILES) | AUC(0-t) at 6 h [1] [µM·h] | IC50 [2] [nM] | IC50 [3] [nM] | further results |
| --- | --- | --- | --- | --- |
| CCC(CC)Nc1c(Nc2cccc(C(=O)N(C)C)c2O)c(=O)c1=O | 6.4 | 910 |  |  |
| CC[C@@H](Nc1c(Nc2cccc(C(=O)N(C)C)c2O)c(=O)c1=O)c1ccco1 | 1.4 | 26 | 3.8 |  |
| Cc1ccc([C@@H](C)Nc2c(Nc3cccc(C(=O)N(C)C)c3O)c(=O)c2=O)o1 | 34 | 775 | 5.4 | IC50 [4]: 251 nM; Ratio IC50 [5]: > 100 |
| Cc1ccc([C@H](Nc2c(Nc3cccc(C(=O)N(C)C)c3O)c(=O)c2=O)C(C)(C)C)o1 | 2.6 | 11 | 3.8 |  |
| C[C@H](Nc1c(Nc2cccc(C(=O)N(C)C)c2O)c(=O)c1=O)c1ccccc1 |  |  |  | Activity [6]: inactive |
| Cc1ccc([C@H](Nc2c(Nc3cccc(C(=O)N(C)C)c3O)c(=O)c2=O)C2CC2)o1 | 1.4 | 55 | 3.6 |  |
| CC[C@@H](Nc1c(Nc2cccc(C(=O)N(C)C)c2O)c(=O)c1=O)c1ccccc1 | 17.4 | 254 | 6.8 | IC50 [4]: 398 nM |
| Cc1ccc([C@H](Nc2c(Nc3cccc(C(=O)N(C)C)c3O)c(=O)c2=O)C(C)C)o1 | 3.2 | 34 | 6.2 |  |
| CC[C@@H](Nc1c(Nc2cccc(C(=O)N(C)C)c2O)c(=O)c1=O)c1cccs1 | 2.5 | 81 | 6 |  |
| C[C@@H](Nc1c(Nc2cccc(C(=O)N(C)C)c2O)c(=O)c1=O)c1ccccc1 |  | 3060 |  |  |
| CC[C@@H](Nc1c(Nc2cccc(C(=O)N(C)C)c2O)c(=O)c1=O)c1ccc2c(c1)OCO2 | 31.7 | 145 | 5 |  |
| CC[C@@H](Nc1c(Nc2cccc(C(=O)N(C)C)c2O)c(=O)c1=O)c1ccc(C)o1 [NAVARIXIN ANHYDROUS] | 49 |  |  | Activity [7]: inactive; inhibition [8]: < 15%; inhibition [9]: < 15%; Activity [10]: inactive |
| CC[C@H](Nc1c(Nc2cccc(C(=O)N(C)C)c2O)c(=O)c1=O)c1ccccc1 | 1 |  | 234 | Activity [6]: inactive |
| CN(C)C(=O)c1cccc(Nc2c(NCc3ccccc3)c(=O)c2=O)c1O |  |  | 236 | Activity [6]: inactive |
| CC[C@@H](Nc1c(Nc2cccc(C(=O)N(C)C)c2O)c(=O)c1=O)c1cccc(F)c1 | 18.3 | 197 | 4.9 |  |
| CC[C@@H](Nc1c(Nc2cccc(C(=O)N(C)C)c2O)c(=O)c1=O)c1ccc(C)s1 | 14.1 | 235 | 5.3 |  |
